From US20250072421A1, “ARYL DIHYDROPYRAN DERIVATIVE OR SALT THEREOF, PEST CONTROL AGENT CONTAINING SAME, AND METHOD FOR USE THEREOF” (ADEKA Corporation, priority 2021, published 2025)

What was measured:
Plutella xylostella = assay: Insecticidal test against Plutella xylostella; details: 500 ppm drug solution, Chinese cabbage seedlings with eggs immersed about 30 sec, six days after immersion, 25° C.
Laodelphax striatellus = assay: Insecticidal test against Laodelphax striatellus; details: 500 ppm drug solution, rice seedlings immersed 30 seconds, three-instar insects, eight days after inoculation
[1] = test system: Frankliniella occidentalis; assay: Insecticidal test against Frankliniella occidentalis; details: 500 ppm drug solution sprayed on Phaseolus vulgaris leaf pieces with hatched larvae, four days after treatment
Dirofilaria immitis = assay: Influence evaluation test on the growth of Dirofilaria immitis; assay type: cell-based; details: 168 h, read-out: development inhibition rate from the L3 stage larva to the L4-stage larva

Structure (SMILES): CC1(C)C(O)=C(C(=O)Nc2ccc(F)cc2)C(=O)OC1c1ccc(C(F)(F)F)cc1 (centres unmarked) [1-22]
- rating of assessment (corrected mortality) against Plutella xylostella (Plutella xylostella): D or higher

Structure (SMILES): O=C(Nc1ccc(F)cc1)C1=C(O)CC(c2ccc(SC(F)(F)F)cc2)OC1=O (centres unmarked) [1-135]
- rating of assessment (corrected mortality) against Plutella xylostella (Plutella xylostella): D or higher

Structure (SMILES): O=C(Nc1ccc(F)cc1)C1=C(O)CC(c2ccc([N+](=O)[O-])cc2)OC1=O (centres unmarked) [1-107]
- rating of assessment (corrected mortality) against Plutella xylostella (Plutella xylostella): D or higher

Structure (SMILES): N#Cc1ccc(C2CC(O)=C(C(=O)Nc3ccc(F)cc3)C(=O)O2)cc1 (centres unmarked) [1-97]
- rating of assessment (corrected mortality) against Plutella xylostella (Plutella xylostella): D or higher

Structure (SMILES): O=C(Nc1ccccc1)C1=C(O)CC(c2ccc(C(F)(F)F)cc2)OC1=O (centres unmarked) [1-6]
- rating of assessment (corrected mortality) against Plutella xylostella (Plutella xylostella): D or higher

Structure (SMILES): O=C(Nc1ccc(F)cn1)C1=C(O)CC(c2ccc(C(F)(F)F)nc2)OC1=O (centres unmarked) [1-76]
- rating of assessment (corrected mortality) against Plutella xylostella (Plutella xylostella): D or higher
- rating of assessment (corrected mortality) against Laodelphax striatellus (Laodelphax striatellus): D or higher

Structure (SMILES): O=C(Nc1ccc(F)cc1)C1=C(O)CC(c2ccc(Cl)nc2)OC1=O (centres unmarked) [1-75]
- rating of assessment (corrected mortality) against Plutella xylostella (Plutella xylostella): D or higher
- rating of assessment (corrected mortality) against Laodelphax striatellus (Laodelphax striatellus): D or higher
- rating of assessment (corrected mortality) against Frankliniella occidentalis [1]: D or higher

Structure (SMILES): O=C(Nc1ccc(F)cn1)C1=C(O)CC(c2ccc(C(F)(F)F)cc2)OC1=O (centres unmarked) [1-77]
- rating of assessment (corrected mortality) against Plutella xylostella (Plutella xylostella): D or higher
- rating of assessment (corrected mortality) against Frankliniella occidentalis [1]: D or higher

Structure (SMILES): COc1ccc(NC(=S)C2=C(O)CC(c3ccc(C(F)(F)F)cc3)OC2=O)cc1 (centres unmarked) [1-31]
- rating of assessment (corrected mortality) against Plutella xylostella (Plutella xylostella): D or higher

Structure (SMILES): O=C(NC1CC1)C1=C(O)CC(c2ccc(C(F)(F)F)cc2)OC1=O (centres unmarked) [1-74]
- rating of assessment (corrected mortality) against Plutella xylostella (Plutella xylostella): D or higher

Structure (SMILES): O=C(Nc1ccc(Oc2ccccc2)cc1)C1=C(O)CC(c2ccc(C(F)(F)F)cc2)OC1=O (centres unmarked) [1-14]
- rating of assessment (corrected mortality) against Plutella xylostella (Plutella xylostella): D or higher

Structure (SMILES): COc1ccccc1C1CC(O)=C(C(=O)Nc2ccc(F)cc2)C(=O)O1 (centres unmarked) [1-131]
- rating of assessment (corrected mortality) against Plutella xylostella (Plutella xylostella): D or higher

Structure (SMILES): CS(=O)(=O)c1ccc(C2CC(O)=C(C(=O)Nc3ccc(F)cc3)C(=O)O2)cc1 (centres unmarked) [1-85]
- rating of assessment (corrected mortality) against Plutella xylostella (Plutella xylostella): D or higher

Structure (SMILES): COc1ccccc1C1CC(O)=C(C(=O)Nc2ccc(SC(F)(F)F)cc2)C(=O)O1 (centres unmarked) [1-132]
- rating of assessment (corrected mortality) against Plutella xylostella (Plutella xylostella): D or higher

Structure (SMILES): CC1(C)C(O)=C(C(=S)Nc2ccc(F)cn2)C(=O)OC1c1ccc(C(F)(F)F)cc1 (centres unmarked) [1-71]
- rating of assessment (corrected mortality) against Laodelphax striatellus (Laodelphax striatellus): D or higher

Structure (SMILES): O=C(Nc1ccc(F)cc1)C1=C(O)CC(c2ccc(C(F)(F)F)c(Cl)c2)OC1=O (centres unmarked) [1-1, 6-(3-chloro-4-(trifluoromethyl)phenyl)-N-(4-fluorophenyl)-4-hydroxy-2-oxo-5,6-dihydro-2H-pyran-3-carboxamide]
- rating of assessment (corrected mortality) against Plutella xylostella (Plutella xylostella): D or higher
- inhibition at 10 µM (Dirofilaria immitis): ≥ 50%

Structure (SMILES): O=C(Nc1ccc(Cl)cc1)C1=C(O)CC(c2ccc(C(F)(F)F)cc2)OC1=O (centres unmarked) [1-5]
- rating of assessment (corrected mortality) against Plutella xylostella (Plutella xylostella): D or higher

Structure (SMILES): O=C(Nc1ccc(F)cc1)C1=C(O)CC(c2ccc(C(F)(F)F)nc2)OC1=O (centres unmarked) [1-21]
- rating of assessment (corrected mortality) against Plutella xylostella (Plutella xylostella): D or higher
- rating of assessment (corrected mortality) against Laodelphax striatellus (Laodelphax striatellus): D or higher
- rating of assessment (corrected mortality) against Frankliniella occidentalis [1]: D or higher

Structure (SMILES): O=C(Nc1cccs1)C1=C(O)CC(c2ccc(C(F)(F)F)cc2)OC1=O (centres unmarked) [1-7]
- rating of assessment (corrected mortality) against Plutella xylostella (Plutella xylostella): D or higher

Structure (SMILES): CC1(C)C(O)=C(C(=S)Nc2ccc(F)cc2)C(=O)OC1c1ccc(C(F)(F)F)cc1 (centres unmarked) [1-67]
- rating of assessment (corrected mortality) against Plutella xylostella (Plutella xylostella): D or higher

Structure (SMILES): Cc1ccc(NC(=O)C2=C(O)CC(c3ccc(C(F)(F)F)cc3)OC2=O)cc1 (centres unmarked) [1-73]
- rating of assessment (corrected mortality) against Plutella xylostella (Plutella xylostella): D or higher

Structure (SMILES): O=C(Nc1ccc2c(c1)OCO2)C1=C(O)CC(c2ccc(C(F)(F)F)cc2)OC1=O (centres unmarked) [1-15]
- rating of assessment (corrected mortality) against Plutella xylostella (Plutella xylostella): D or higher

Structure (SMILES): CSc1ccc(C2CC(O)=C(C(=O)Nc3ccc(F)cc3)C(=O)O2)cc1 (centres unmarked) [1-83]
- rating of assessment (corrected mortality) against Plutella xylostella (Plutella xylostella): D or higher

Structure (SMILES): O=C1OC(c2ccc(C(F)(F)F)cc2)C2(CCCCC2)C(O)=C1C(=S)Nc1ccc(F)cc1 (centres unmarked) [1-68, N-(4-fluorophenyl)-5-hydroxy-3-oxo-1-(4-(trifluoromethyl)phenyl)-2-oxaspiro[5.5]undec-4-en-4-carbothioamide]
- inhibition at 10 µM (Dirofilaria immitis): ≥ 50%

Structure (SMILES): C[S+]([O-])c1ccc(C2CC(O)=C(C(=O)Nc3ccc(F)cc3)C(=O)O2)cc1 (centres unmarked) [1-84]
- rating of assessment (corrected mortality) against Plutella xylostella (Plutella xylostella): D or higher

Structure (SMILES): O=C(Nc1ccc(F)cc1)C1=C(O)CC(c2ccc3c(c2)OCO3)OC1=O (centres unmarked) [1-103]
- rating of assessment (corrected mortality) against Plutella xylostella (Plutella xylostella): D or higher

Structure (SMILES): O=C(Nc1ccc(F)cc1)C1=C(O)CC(c2ccc(OC(F)(F)F)cc2)OC1=O (centres unmarked) [1-86]
- rating of assessment (corrected mortality) against Plutella xylostella (Plutella xylostella): D or higher

Structure (SMILES): O=C(Nc1ccc(F)cc1)C1=C(O)CC(c2cc(-c3ccccc3)no2)OC1=O (centres unmarked) [1-78]
- rating of assessment (corrected mortality) against Plutella xylostella (Plutella xylostella): D or higher
